What was measured:
Experiment in all cases: relative viability (nuclei count vs DMSO), 5 days (fraction); higher = more cells survive
[1] = compound: COc1cc2nccc(Oc3ccc(NC(=O)C4(C(=O)Nc5ccc(F)cc5)CC4)cc3)c2cc1OC [Cabozantinib] + O=C(CCCCCCC(=O)Nc1ccccc1)NO [Vorinostat] (partner 1 µM)
Procedure, shortened: (§1)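 Five library-drug doses in √10 steps were combined with a fixed anchor-drug dose, or a single drug was given alone, by pin tool to lung cancer cell lines in 1536-well plates the day after seeding. Nuclei were stained and counted after 5 days. Relative viability is the nuclei count in treated wells over that in vehicle wells, taken as the median of duplicate plates.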

[2] = compound: C1=CC(=CC=C1NC(=S)NNC2=C(C=C(C=C2[N+](=O)[O-])C(F)(F)F)[N+](=O)[O-])F [Kobe2602] + Cc1nc(NC(=O)N2CCC[C@H]2C(N)=O)sc1-c1ccnc(C(C)(C)C(F)(F)F)c1 [Alpelisib] (partner 2 µM)
Procedure, shortened: as §1

[3] = compound: COc1cc2nccc(Oc3ccc(NC(=O)C4(C(=O)Nc5ccc(F)cc5)CC4)cc3)c2cc1OC [Cabozantinib] + CC(=O)Nc1cccc(-n2c(=O)n(C3CC3)c(=O)c3c(Nc4ccc(I)cc4F)n(C)c(=O)c(C)c32)c1 [Trametinib] (partner 0.02 µM)
Procedure, shortened: as §1

[4] = compound: O[C@@H](COc1cccc2ncccc12)CN1CCN([C@@H]2c3ccccc3[C@@H]3[C@H](c4ccccc42)C3(F)F)CC1 [Zosuquidar] + Cc1nc(Nc2ncc(C(=O)Nc3c(C)cccc3Cl)s2)cc(N2CCN(CCO)CC2)n1 [Dasatinib] (partner 0.075 µM)
Procedure, shortened: as §1

## NCI-H2170
[1]; first compound 0.02 µM
  relative viability: 0.818
[1]; first compound 0.06325 µM
  relative viability: 0.821
[1]; first compound 0.2 µM
  relative viability: 0.704
[1]; first compound 0.6325 µM
  relative viability: 0.847
[1]; first compound 2 µM
  relative viability: 0.914
[2]; first compound 0.2 µM
  relative viability: 0.807
[2]; first compound 0.6325 µM
  relative viability: 0.86
[2]; first compound 2 µM
  relative viability: 0.794
[2]; first compound 6.325 µM
  relative viability: 0.726
[2]; first compound 20 µM
  relative viability: 0.772
[3]; first compound 0.02 µM
  relative viability: 0.927
[3]; first compound 0.06325 µM
  relative viability: 0.921
[3]; first compound 0.2 µM
  relative viability: 0.896
[3]; first compound 0.6325 µM
  relative viability: 0.922
[3]; first compound 2 µM
  relative viability: 0.95
[4]; first compound 0.01 µM
  relative viability: 0.464
[4]; first compound 0.03162 µM
  relative viability: 0.661
[4]; first compound 0.1 µM
  relative viability: 0.636
[4]; first compound 0.3162 µM
  relative viability: 0.767
[4]; first compound 1 µM
  relative viability: 0.58

## NCI-H322M
[1]; first compound 0.02 µM
  relative viability: 0.897
[1]; first compound 0.06325 µM
  relative viability: 1.1
[1]; first compound 0.2 µM
  relative viability: 0.894
[1]; first compound 0.6325 µM
  relative viability: 0.894
[1]; first compound 2 µM
  relative viability: 0.917
[2]; first compound 0.2 µM
  relative viability: 0.808
[2]; first compound 0.6325 µM
  relative viability: 0.81
[2]; first compound 2 µM
  relative viability: 0.828
[2]; first compound 6.325 µM
  relative viability: 0.827
[2]; first compound 20 µM
  relative viability: 0.792
[3]; first compound 0.02 µM
  relative viability: 0.521
[3]; first compound 0.06325 µM
  relative viability: 0.546
[3]; first compound 0.2 µM
  relative viability: 0.438
[3]; first compound 0.6325 µM
  relative viability: 0.525
[3]; first compound 2 µM
  relative viability: 0.545
[4]; first compound 0.01 µM
  relative viability: 0.242
[4]; first compound 0.03162 µM
  relative viability: 0.229
[4]; first compound 0.1 µM
  relative viability: 0.242
[4]; first compound 0.3162 µM
  relative viability: 0.269
[4]; first compound 1 µM
  relative viability: 0.227

## LCLC-103H
[1]; first compound 0.02 µM
  relative viability: 0.762
[1]; first compound 0.06325 µM
  relative viability: 0.906
[1]; first compound 0.2 µM
  relative viability: 0.892
[1]; first compound 0.6325 µM
  relative viability: 0.791
[1]; first compound 2 µM
  relative viability: 0.736
[2]; first compound 0.2 µM
  relative viability: 0.897
[2]; first compound 0.6325 µM
  relative viability: 0.944
[2]; first compound 2 µM
  relative viability: 0.961
[2]; first compound 6.325 µM
  relative viability: 1.02
[2]; first compound 20 µM
  relative viability: 0.985
[3]; first compound 0.02 µM
  relative viability: 0.716
[3]; first compound 0.06325 µM
  relative viability: 0.709
[3]; first compound 0.2 µM
  relative viability: 0.678
[3]; first compound 0.6325 µM
  relative viability: 0.68
[3]; first compound 2 µM
  relative viability: 0.667
[4]; first compound 0.01 µM
  relative viability: 0.429
[4]; first compound 0.03162 µM
  relative viability: 0.447
[4]; first compound 0.1 µM
  relative viability: 0.399
[4]; first compound 0.3162 µM
  relative viability: 0.488
[4]; first compound 1 µM
  relative viability: 0.537

## NCI-H647
[1]; first compound 0.02 µM
  relative viability: 0.621
[1]; first compound 0.06325 µM
  relative viability: 0.734
[1]; first compound 0.2 µM
  relative viability: 0.696
[1]; first compound 0.6325 µM
  relative viability: 0.43
[1]; first compound 2 µM
  relative viability: 0.496
[2]; first compound 0.2 µM
  relative viability: 1.23
[2]; first compound 0.6325 µM
  relative viability: 1.37
[2]; first compound 2 µM
  relative viability: 1.11
[2]; first compound 6.325 µM
  relative viability: 1.21
[2]; first compound 20 µM
  relative viability: 1.12
[3]; first compound 0.02 µM
  relative viability: 0.541
[3]; first compound 0.06325 µM
  relative viability: 0.451
[3]; first compound 0.2 µM
  relative viability: 0.449
[3]; first compound 0.6325 µM
  relative viability: 0.424
[3]; first compound 2 µM
  relative viability: 0.41
[4]; first compound 0.01 µM
  relative viability: 0.168
[4]; first compound 0.03162 µM
  relative viability: 0.121
[4]; first compound 0.1 µM
  relative viability: 0.137
[4]; first compound 0.3162 µM
  relative viability: 0.229
[4]; first compound 1 µM
  relative viability: 0.163

## LK-2
[1]; first compound 0.02 µM
  relative viability: 0.226
[1]; first compound 0.06325 µM
  relative viability: 0.178
[1]; first compound 0.2 µM
  relative viability: 0.385
[1]; first compound 0.6325 µM
  relative viability: 0.309
[1]; first compound 2 µM
  relative viability: 0.348
[2]; first compound 0.2 µM
  relative viability: 1.04
[2]; first compound 0.6325 µM
  relative viability: 1.2
[2]; first compound 2 µM
  relative viability: 1.26
[2]; first compound 6.325 µM
  relative viability: 1.07
[2]; first compound 20 µM
  relative viability: 1.04
[3]; first compound 0.02 µM
  relative viability: 0.678
[3]; first compound 0.06325 µM
  relative viability: 0.836
[3]; first compound 0.2 µM
  relative viability: 0.717
[3]; first compound 0.6325 µM
  relative viability: 0.863
[3]; first compound 2 µM
  relative viability: 0.781
[4]; first compound 0.01 µM
  relative viability: 0.31
[4]; first compound 0.03162 µM
  relative viability: 0.41
[4]; first compound 0.1 µM
  relative viability: 0.291
[4]; first compound 0.3162 µM
  relative viability: 0.297
[4]; first compound 1 µM
  relative viability: 0.314

## NCI-H1755
[1]; first compound 0.02 µM
  relative viability: 0.765
[1]; first compound 0.06325 µM
  relative viability: 0.792
[1]; first compound 0.2 µM
  relative viability: 0.83
[1]; first compound 0.6325 µM
  relative viability: 0.739
[1]; first compound 2 µM
  relative viability: 0.705
[2]; first compound 0.2 µM
  relative viability: 0.906
[2]; first compound 0.6325 µM
  relative viability: 0.874
[2]; first compound 2 µM
  relative viability: 0.919
[2]; first compound 6.325 µM
  relative viability: 0.866
[2]; first compound 20 µM
  relative viability: 0.956
[3]; first compound 0.02 µM
  relative viability: 0.816
[3]; first compound 0.06325 µM
  relative viability: 0.765
[3]; first compound 0.2 µM
  relative viability: 0.795
[3]; first compound 0.6325 µM
  relative viability: 0.73
[3]; first compound 2 µM
  relative viability: 0.718
[4]; first compound 0.01 µM
  relative viability: 0.401
[4]; first compound 0.03162 µM
  relative viability: 0.383
[4]; first compound 0.1 µM
  relative viability: 0.375
[4]; first compound 0.3162 µM
  relative viability: 0.451
[4]; first compound 1 µM
  relative viability: 0.415

## EPLC-272H
[1]; first compound 0.02 µM
  relative viability: 0.299
[1]; first compound 0.06325 µM
  relative viability: 0.44
[1]; first compound 0.2 µM
  relative viability: 0.402
[1]; first compound 0.6325 µM
  relative viability: 0.534
[1]; first compound 2 µM
  relative viability: 0.524
[2]; first compound 0.2 µM
  relative viability: 0.883
[2]; first compound 0.6325 µM
  relative viability: 1.08
[2]; first compound 2 µM
  relative viability: 0.908
[2]; first compound 6.325 µM
  relative viability: 0.885
[2]; first compound 20 µM
  relative viability: 0.925
[3]; first compound 0.02 µM
  relative viability: 0.275
[3]; first compound 0.06325 µM
  relative viability: 0.318
[3]; first compound 0.2 µM
  relative viability: 0.275
[3]; first compound 0.6325 µM
  relative viability: 0.246
[3]; first compound 2 µM
  relative viability: 0.245
[4]; first compound 0.01 µM
  relative viability: 0.381
[4]; first compound 0.03162 µM
  relative viability: 0.316
[4]; first compound 0.1 µM
  relative viability: 0.331
[4]; first compound 0.3162 µM
  relative viability: 0.325
[4]; first compound 1 µM
  relative viability: 0.389

## NCI-H2228
[1]; first compound 0.02 µM
  relative viability: 0.732
[1]; first compound 0.06325 µM
  relative viability: 1.05
[1]; first compound 0.2 µM
  relative viability: 0.763
[1]; first compound 0.6325 µM
  relative viability: 0.74
[1]; first compound 2 µM
  relative viability: 0.707
[2]; first compound 0.2 µM
  relative viability: 0.724
[2]; first compound 0.6325 µM
  relative viability: 0.712
[2]; first compound 2 µM
  relative viability: 0.747
[2]; first compound 6.325 µM
  relative viability: 0.713
[2]; first compound 20 µM
  relative viability: 0.776
[3]; first compound 0.02 µM
  relative viability: 0.4
[3]; first compound 0.06325 µM
  relative viability: 0.61
[3]; first compound 0.2 µM
  relative viability: 0.594
[3]; first compound 0.6325 µM
  relative viability: 0.704
[3]; first compound 2 µM
  relative viability: 0.479
[4]; first compound 0.01 µM
  relative viability: 0.507
[4]; first compound 0.03162 µM
  relative viability: 0.573
[4]; first compound 0.1 µM
  relative viability: 0.612
[4]; first compound 0.3162 µM
  relative viability: 0.621
[4]; first compound 1 µM
  relative viability: 0.551

From the supplement of paper PMC10307832
